# According to patent publication US12371428B2 (Exelixis, Inc., priority 2019, dated 2025):
# Legend:
# [1] = molecular target: Mer (phospho-Mer, MERTK-transfected 293A cells) (Homo sapiens (Human), UniProt Q12866); assay: Mer autophosphorylation ELISA in transient transfected 293A cells (Example H); assay type: cell-based; settings: cellular activity; Mer autophosphorylation ELISA in transient transfected 293A cells
# Method in brief: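 MERTK-transfected 293A; 8-pt dose, 1 h, serum-free, 0.3% DMSO. Cold lysis with orthovanadate and protease/phosphatase inhibitors. Phospho-Mer by DuoSet IC ELISA vs phospho-Mer standard. IC50: 4-PL fit; DMSO = 100%, reference inhibitor = 0%.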
# [2] = molecular target: Human MER (residues 528-999) (Homo sapiens (Human), UniProt Q12866); assay: Human Mer kinase assay, HTRF KinEase (Example C-2); assay type: biochemical; settings: protocol of Example C-2 (other compounds)
# Human MER (residues 528-999), sequence (Q12866 528-999): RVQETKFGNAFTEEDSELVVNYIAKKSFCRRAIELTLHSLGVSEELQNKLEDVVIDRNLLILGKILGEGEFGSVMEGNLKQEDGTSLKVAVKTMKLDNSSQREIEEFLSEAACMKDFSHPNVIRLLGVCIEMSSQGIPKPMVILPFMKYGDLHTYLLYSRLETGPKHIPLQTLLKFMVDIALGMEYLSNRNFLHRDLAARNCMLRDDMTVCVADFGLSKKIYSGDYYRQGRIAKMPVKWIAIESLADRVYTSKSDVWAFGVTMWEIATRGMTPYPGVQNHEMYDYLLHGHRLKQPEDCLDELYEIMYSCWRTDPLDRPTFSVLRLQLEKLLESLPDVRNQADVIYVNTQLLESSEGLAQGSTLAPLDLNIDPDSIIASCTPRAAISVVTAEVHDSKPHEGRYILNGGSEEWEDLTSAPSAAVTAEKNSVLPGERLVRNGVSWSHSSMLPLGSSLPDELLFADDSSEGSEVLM
# Method in brief: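 HTRF KinEase TK assay with MER 528-999 (1 ng/well) in enzymatic buffer plus 5 mM MgCl2 and 1 mM DTT, biotinylated peptide substrate and ATP at Km (40 μM), 3% DMSO final, 60 min at room temperature. Stopped with EDTA detection mix (SA-XL665, TK antibody-Eu3+), read at 665/620 nm after 60 min; IC50 from 10-point 4-parameter fit, normalized to DMSO and 1 μM reference.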
# [3] = molecular target: Human KDR (residues 790-1356) (Homo sapiens (Human), UniProt P35968); assay: Human KDR kinase assay, HTRF KinEase (Example B-2); assay type: biochemical; settings: protocol of Example B-2 (other compounds)
# Human KDR (residues 790-1356), sequence (P35968 790-1356): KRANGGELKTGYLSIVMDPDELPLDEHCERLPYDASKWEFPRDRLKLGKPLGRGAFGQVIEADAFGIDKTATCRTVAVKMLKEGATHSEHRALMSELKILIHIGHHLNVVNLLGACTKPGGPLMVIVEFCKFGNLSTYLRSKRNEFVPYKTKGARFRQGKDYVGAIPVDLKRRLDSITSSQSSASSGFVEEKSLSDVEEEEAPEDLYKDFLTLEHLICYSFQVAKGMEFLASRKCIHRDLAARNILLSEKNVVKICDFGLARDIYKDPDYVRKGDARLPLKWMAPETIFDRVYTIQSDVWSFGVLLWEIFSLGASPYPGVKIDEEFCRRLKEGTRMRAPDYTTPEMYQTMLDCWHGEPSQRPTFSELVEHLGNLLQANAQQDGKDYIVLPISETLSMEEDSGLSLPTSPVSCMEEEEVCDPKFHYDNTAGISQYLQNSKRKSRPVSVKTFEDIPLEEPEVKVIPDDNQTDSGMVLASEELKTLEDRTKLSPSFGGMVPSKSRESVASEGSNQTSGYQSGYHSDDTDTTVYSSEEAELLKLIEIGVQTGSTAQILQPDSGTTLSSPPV
# Method in brief: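 Ten compound concentrations (3% DMSO final) were pre-plated, then KDR (790-1356) with biotinylated peptide in Mg/Mn/DTT buffer was added; ATP at Km (4.0 μM) started a 40 min room-temperature reaction. Detection used Eu-TK antibody and SA-XL665 in EDTA buffer; activity normalized to DMSO and reference inhibitor, IC50 by logistic fit.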
# Mer (phospho-Mer, MERTK-transfected 293A cells), sequence (Q12866 21-999): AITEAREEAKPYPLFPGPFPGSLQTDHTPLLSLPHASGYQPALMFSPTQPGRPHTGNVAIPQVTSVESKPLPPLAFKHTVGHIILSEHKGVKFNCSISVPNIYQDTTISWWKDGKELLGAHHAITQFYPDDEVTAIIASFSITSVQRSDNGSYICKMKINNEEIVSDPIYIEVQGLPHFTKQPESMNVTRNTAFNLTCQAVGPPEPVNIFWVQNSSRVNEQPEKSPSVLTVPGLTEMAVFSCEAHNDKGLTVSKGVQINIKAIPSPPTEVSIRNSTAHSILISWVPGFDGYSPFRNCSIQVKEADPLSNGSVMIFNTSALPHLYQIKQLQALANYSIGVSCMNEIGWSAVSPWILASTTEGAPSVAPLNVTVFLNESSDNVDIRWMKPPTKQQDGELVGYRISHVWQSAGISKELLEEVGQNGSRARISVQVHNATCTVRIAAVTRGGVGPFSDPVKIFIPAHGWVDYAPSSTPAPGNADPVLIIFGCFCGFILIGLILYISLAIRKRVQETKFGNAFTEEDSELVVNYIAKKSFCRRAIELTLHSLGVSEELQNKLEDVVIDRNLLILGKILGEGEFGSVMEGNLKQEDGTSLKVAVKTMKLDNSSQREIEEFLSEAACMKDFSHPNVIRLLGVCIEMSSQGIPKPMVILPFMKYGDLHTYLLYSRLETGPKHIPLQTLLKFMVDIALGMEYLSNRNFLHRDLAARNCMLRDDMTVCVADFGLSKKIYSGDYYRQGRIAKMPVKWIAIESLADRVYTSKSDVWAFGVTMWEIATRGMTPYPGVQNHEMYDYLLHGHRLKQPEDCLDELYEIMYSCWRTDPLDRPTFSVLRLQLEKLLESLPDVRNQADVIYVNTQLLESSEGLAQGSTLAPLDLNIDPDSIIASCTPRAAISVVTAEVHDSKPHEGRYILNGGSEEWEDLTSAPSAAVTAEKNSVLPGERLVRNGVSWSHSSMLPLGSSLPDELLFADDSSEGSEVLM
SMILES,IC50 [1],IC50 [2],IC50 [3]
"COc1ccc2nccc(Oc3ccc(NC(=O)c4cccn(-c5ccc(F)cc5)c4=O)cc3F)c2n1 [Compound 292, N-[3-Fluoro-4-[(6-methoxy-1,5-naphthyridin-4-yl)oxy]phenyl]-1-(4-fluorophenyl)-2-oxopyridine-3-carboxamide]",< 100 nM,< 100 nM,> 300 nM
"COc1cc2nccc(Oc3ccc(NC(=O)c4cccn(-c5ccc(F)cc5)c4=O)cc3F)c2nc1OC [Compound 293, N-[4-[(6,7-Dimethoxy-1,5-naphthyridin-4-yl)oxy]-3-fluorophenyl]-1-(4-fluorophenyl)-2-oxopyridine-3-carboxamide]",< 100 nM,< 100 nM,< 100 nM
"COc1cnc2c(Oc3ccc(NC(=O)c4c(C)ccn(-c5ccc(F)cc5)c4=O)cc3F)ccnc2c1 [Compound 294, N-[3-Fluoro-4-[(7-methoxy-1,5-naphthyridin-4-yl)oxy]phenyl]-1-(4-fluorophenyl)-4-methyl-2-oxopyridine-3-carboxamide]",< 100 nM,< 100 nM,< 100 nM
"Cc1cc(C)n(-c2ccc(F)cc2)c(=O)c1C(=O)Nc1ccc(Oc2ccnc3cccnc23)c(F)c1 [Compound 295, N-[3-Fluoro-4-(1,5-naphthyridin-4-yloxy)phenyl]-1-(4-fluorophenyl)-4,6-dimethyl-2-oxopyridine-3-carboxamide]",< 100 nM,< 100 nM,< 100 nM
"COc1ccc2nccc(Oc3ccc(NC(=O)c4c(C)cc(C)n(-c5ccc(F)cc5C)c4=O)cc3F)c2n1 [Compound 296, N-[3-Fluoro-4-[(6-methoxy-1,5-naphthyridin-4-yl)oxy]phenyl]-1-(4-fluoro-2-methylphenyl)-4,6-dimethyl-2-oxopyridine-3-carboxamide]",< 100 nM,< 100 nM,100 to 300 nM
"Cc1ccc2nccc(Oc3ccc(NC(=O)c4c(C)cc(C)n(-c5ccc(F)cc5)c4=O)cc3F)c2n1 [Compound 297, N-[3-Fluoro-4-[(6-methyl-1,5-naphthyridin-4-yl)oxy]phenyl]-1-(4-fluorophenyl)-4,6-dimethyl-2-oxopyridine-3-carboxamide]",< 100 nM,< 100 nM,< 100 nM
"COc1cc2nccc(Oc3ccc(NC(=O)c4c(C)cc(C)n(-c5ccc(F)cc5C)c4=O)cc3F)c2nc1OC [Compound 298, N-[4-[(6,7-Dimethoxy-1,5-naphthyridin-4-yl)oxy]-3-fluorophenyl]-1-(4-fluoro-2-methylphenyl)-4,6-dimethyl-2-oxopyridine-3-carboxamide]",< 100 nM,< 100 nM,< 100 nM
"COc1cc2nccc(Oc3ccc(NC(=O)c4c(C)ccn(-c5ccc(F)cc5)c4=O)cc3)c2nc1OC [Compound 299, N-[4-[(6,7-Dimethoxy-1,5-naphthyridin-4-yl)oxy]phenyl]-1-(4-fluorophenyl)-4-methyl-2-oxopyridine-3-carboxamide]",< 100 nM,< 100 nM,< 100 nM
"COc1cnc2c(Oc3ccc(NC(=O)c4c(C)ccn(-c5ccc(F)cc5)c4=O)cc3)ccnc2c1 [Compound 300, 1-(4-Fluorophenyl)-N-[4-[(7-methoxy-1,5-naphthyridin-4-yl)oxy]phenyl]-4-methyl-2-oxopyridine-3-carboxamide]",< 100 nM,< 100 nM,100 to 300 nM
"COCc1ncc(C(=O)Nc2ccc(Oc3ccnc4cc(OC)c(OC)nc34)c(F)c2)c(O)c1-c1ccc(F)cc1 [Compound 301, N-[4-[(6,7-Dimethoxy-1,5-naphthyridin-4-yl)oxy]-3-fluorophenyl]-5-(4-fluorophenyl)-4-hydroxy-6-(methoxymethyl)pyridine-3-carboxamide]",< 100 nM,< 100 nM,< 100 nM
"COc1ccc2nccc(Oc3ccc(NC(=O)c4c(C)nc(C)c(-c5ccc(F)cc5)c4O)cc3)c2n1 [Compound 340, 5-(4-fluorophenyl)-4-hydroxy-N-[4-[(6-methoxy-1,5-naphthyridin-4-yl)oxy]phenyl]-2,6-dimethylpyridine-3-carboxamide]",< 100 nM,< 100 nM,< 100 nM
"COc1ccc2nccc(Oc3ccc(NC(=O)c4cn(C(C)C)c(C)c(-c5ccc(F)cc5)c4=O)cc3)c2n1 [Compound 341, 5-(4-fluorophenyl)-N-[4-[(6-methoxy-1,5-naphthyridin-4-yl)oxy]phenyl]-6-methyl-4-oxo-1-propan-2-ylpyridine-3-carboxamide]",< 100 nM,< 100 nM,> 300 nM
"COc1ccc2nccc(Oc3ccc(NC(=O)c4cnc(C)c(-c5ccc(F)cc5)c4O)cc3)c2n1 [Compound 342, 5-(4-fluorophenyl)-4-hydroxy-N-[4-[(6-methoxy-1,5-naphthyridin-4-yl)oxy]phenyl]-6-methylpyridine-3-carboxamide]",< 100 nM,< 100 nM,100 to 300 nM
"COc1ccc2nccc(Oc3ccc(NC(=O)c4ccc(C)n(-c5ccc(F)cc5)c4=O)cc3)c2n1 [Compound 343, 1-(4-fluorophenyl)-N-[4-[(6-methoxy-1,5-naphthyridin-4-yl)oxy]phenyl]-6-methyl-2-oxopyridine-3-carboxamide]",< 100 nM,< 100 nM,100 to 300 nM
"COc1ccc2nccc(Oc3ccc(NC(=O)c4c(C)nc(C)c(-c5ccc(F)cc5)c4O)cc3F)c2c1 [Compound 345, N-[3-fluoro-4-(6-methoxyquinolin-4-yl)oxyphenyl]-5-(4-fluorophenyl)-4-hydroxy-2,6-dimethylpyridine-3-carboxamide]",< 100 nM,< 100 nM,100 to 300 nM
"COc1ccc2nccc(Oc3ccc(NC(=O)c4ccc(C)n(-c5ccc(F)cc5)c4=O)cc3F)c2c1 [Compound 346, N-[3-fluoro-4-(6-methoxyquinolin-4-yl)oxyphenyl]-1-(4-fluorophenyl)-6-methyl-2-oxopyridine-3-carboxamide]",< 100 nM,< 100 nM,100 to 300 nM
"COc1ccc2nccc(Oc3ccc(NC(=O)c4cnc(C)c(-c5ccc(F)cc5)c4O)cc3F)c2c1 [Compound 347, N-[3-fluoro-4-(6-methoxyquinolin-4-yl)oxyphenyl]-5-(4-fluorophenyl)-4-hydroxy-6-methylpyridine-3-carboxamide]",< 100 nM,< 100 nM,100 to 300 nM
"COCCOc1ccc2nccc(Oc3ccc(NC(=O)c4ccc(C)n(-c5ccc(F)cc5)c4=O)cc3F)c2n1 [Compound 350, N-[3-fluoro-4-[[6-(2-methoxyethoxy)-1,5-naphthyridin-4-yl]oxy]phenyl]-1-(4-fluorophenyl)-6-methyl-2-oxopyridine-3-carboxamide]",< 100 nM,< 100 nM,100 to 300 nM
"Cc1ccc(C(=O)Nc2ccc(Oc3ccnc4ccc(OCCN5CCOCC5)nc34)c(F)c2)c(=O)n1-c1ccc(F)cc1 [Compound 351, N-[3-fluoro-4-[[6-(2-morpholin-4-ylethoxy)-1,5-naphthyridin-4-yl]oxy]phenyl]-1-(4-fluorophenyl)-6-methyl-2-oxopyridine-3-carboxamide]",< 100 nM,< 100 nM,> 300 nM
"Cc1ncc(C(=O)Nc2ccc(Oc3ccnc4ccc(OCCN5CCOCC5)nc34)c(F)c2)c(O)c1-c1ccc(F)cc1 [Compound 352, N-[3-fluoro-4-[[6-(2-morpholin-4-ylethoxy)-1,5-naphthyridin-4 yl]oxy]phenyl]-5-(4-fluorophenyl)-4-hydroxy-6-methylpyridine-3-carboxamide]",< 100 nM,< 100 nM,100 to 300 nM
"Cc1ccc(C(=O)Nc2ccc(Oc3ccnc4ccc(OCCN(C)C)nc34)c(F)c2)c(=O)n1-c1ccc(F)cc1 [Compound 353, N-[4-[[6-[2-(dimethylamino)ethoxy]-1,5-naphthyridin-4-yl]oxy]-3-fluorophenyl]-1-(4-fluorophenyl)-6-methyl-2-oxopyridine-3-carboxamide]",< 100 nM,< 100 nM,> 300 nM
"Cc1nc(C)c(-c2ccc(F)cc2)c(O)c1C(=O)Nc1ccc(Oc2ccnc3ccc(OCCN(C)C)nc23)c(F)c1 [Compound 354, N-[4-[[6-[2-(dimethylamino)ethoxy]-1,5-naphthyridin-4-yl]oxy]-3-fluorophenyl]-5-(4-fluorophenyl)-4-hydroxy-2,6-dimethylpyridine-3-carboxamide]",< 100 nM,< 100 nM,100 to 300 nM
"Cc1nc(C)c(-c2ccc(F)cc2)c(O)c1C(=O)Nc1ccc(Oc2ccnc3ccc(OCCN4CCOCC4)nc23)c(F)c1 [Compound 355, N-[3-fluoro-4-[[6-(2-morpholin-4-ylethoxy)-1,5-naphthyridin-4-yl)oxy]phenyl]-5-(4-fluorophenyl)-4-hydroxy-2,6-dimethylpyridine-3-carboxamide]",< 100 nM,< 100 nM,< 100 nM
"COc1ccc2nccc(Oc3ccc(NC(=O)c4cn(C)c(C)c(-c5ccc(F)cc5)c4=O)cc3)c2n1 [Compound 356, 5-(4-fluorophenyl)-N-[4-[(6-methoxy-1,5-naphthyridin-4-yl)oxy]phenyl]-1,6-dimethyl-4-oxopyridine-3-carboxamide]",< 100 nM,< 100 nM,> 300 nM
